Laboratory results: patent EP2604265A1, “P2x7 antagonists as frontline or adjunctive treatment against status epilepticus” (Royal College of Surgeons in Ireland (RCSI), priority 2011, dated 2013)

Key:
[1] = test system: 10 day old Sprague Dawley rat pups; assay: Neonatal SE model, intra-amygdala KA in P10 rat pups, EEG; assay type: in vivo; details: 150 µmol/kg intraperitoneally, 40 min post-KA
Experimental: 10 day old Sprague Dawley rat pups were obtained from Harlan UK Limited (Blackthorn, UK). Rat pups were equipped with skull surface EEG and given intra-amygdala microinjection of kainic acid (2 µg) via an implanted guide cannula. P10 rat pups develop SE shortly after KA injection. Seizures in the model are propagated to the hippocampus and surface EEG recordings have previously shown a transition to low amplitude high frequency EEG, developing into high amplitude high frequency epileptiform EEG seizures. The pups display behaviour including initial masticatory movements and salivation, developing to periods of facial and forelimb myoclonus and progressing to the most commonly observed behaviour of wild running, loss of posture and swimming motions. The high amplitude high frequency spiking is sustained and corresponds to wild running and swimming behaviours during recordings 1-2 h after KA. By 4 hours, continuous seizures have abated but the EEG continues to display intermittent lower-amplitude high frequency spiking and high amplitude low frequency spikes even after 24 h. The pathological consequences of neonatal seizures in the model include hippocampal cell death and the animals later display unilateral hippocampal sclerosis.
Digitized EEG recordings were analyzed off-line using manual assessment and automated software. The occurrence of high amplitude high frequency spiking during seizures is synonymous with injury-causing electrographic seizures during SE (also termed type IV electrographic seizures) (Lowenstein et al., 1991; Henshall et al., 2000). The duration of high-frequency (>5 Hz) high-amplitude (>2× baseline) polyspike discharges of ≥5 s duration (HAHFDs) was counted by a reviewer blind to treatment. Further EEG analysis was performed by uploading EEG into Labchart7 software (ADInstruments) to calculate the power spectral density (total power, a measure of the input signal's power (amplitude) over frequency) EEG spectrogram (spectral power against frequency and time). […]

Adult male C57BL/6 mice = assay: Refractory SE model in mice, drugs given 60 min post-KA, EEG during the next hour; assay type: in vivo
Experimental: Adult male C57BL/6 mice (20-25 g) were obtained from Harlan UK (Blackthorn, UK). Mice were first anesthetized using isoflurane (3-5%) and maintained normothermic by means of a feedback-controlled heat blanket (Harvard Apparatus Ltd, Kent, UK). Mice were next placed in a stereotaxic frame and three partial craniectomies performed to affix cortical skull-mounted EEG electrodes (Bilaney Consultants Ltd, Sevenoaks, UK). EEG was recorded using a Grass Comet XL digital EEG (Medivent Ltd, Lucan, Ireland). A guide cannula was affixed (coordinates from Bregma: AP = 0.94; L = 2.85 mm) and the assembly fixed in place with dental cement. Anesthesia was then discontinued and freely moving mice were placed inside a clear perspex recording chamber. EEG recordings were commenced and after establishing baseline EEG for a few minutes, an injection cannula was lowered through the guide cannula for injection of kainic acid (KA) (Ocean Produce International, Nova Scotia, Canada) into the basolateral amygdala nucleus (0.3 µg in 0.2 µl phosphate-buffered saline). Non-seizure control mice underwent the same surgical procedure but received 0.2 µl intra-amygdala vehicle. Mice were killed at different time-points (1, 4, 8 or 24 h) later and perfused with saline to remove intravascular blood components. Brains were either flash-frozen whole in 2-methylbutane at […] or perfused with 4% PFA for histopathology, or dissected on ice to obtain whole hippocampus or microdissected to obtain the different hippocampal subfields (CA1, DG and CA3).
Digitized EEG recordings were analyzed off-line using manual assessment and automated software. The occurrence of high amplitude high frequency spiking during seizures is synonymous with injury-causing electrographic seizures during SE (also termed type IV electrographic seizures) (Lowenstein et al., 1991; Henshall et al., 2000). The duration of high-frequency (>5 Hz) high-amplitude (>2× baseline) polyspike discharges of ≥5 s duration (HAHFDs) was counted by a reviewer blind to treatment. Further EEG analysis was performed by uploading EEG into Labchart7 software (ADInstruments) to calculate the power spectral density (total power, a measure of the input signal's power (amplitude) over frequency) EEG spectrogram (spectral power against frequency and time).
A-438079 (3-[[5-(2,3-Dichlorophenyl)-1H-tetrazol-1-yl]methyl]pyridine hydrochloride) (50 µM) was from Tocris Biosciences (Bristol, U.K.) and the P2X7R specific antibody was from Alomone Labs (APR-008, Alomone Labs, Ltd, Jerusalem, Israel) and injected at 0.7 mg/ml. Lorazepam (Ativan®, Wyeth, Taplow, U.K.) (6 mg/kg) was administered intraperitoneally (i.p.) at 40 or 60 min after KA.
To model refractory SE, seizures were allowed to continue beyond the normal time when lorazepam is given (40 min) and instead the effects of drugs were recorded 60 min post-KA on the EEG during the next hour.

P2X2 = target: T1, P2X2 (Homo sapiens, UniProt Q9UBL9); details: selectivity of BBG; cited from earlier work
T1 sequence (Q9UBL9 1-471): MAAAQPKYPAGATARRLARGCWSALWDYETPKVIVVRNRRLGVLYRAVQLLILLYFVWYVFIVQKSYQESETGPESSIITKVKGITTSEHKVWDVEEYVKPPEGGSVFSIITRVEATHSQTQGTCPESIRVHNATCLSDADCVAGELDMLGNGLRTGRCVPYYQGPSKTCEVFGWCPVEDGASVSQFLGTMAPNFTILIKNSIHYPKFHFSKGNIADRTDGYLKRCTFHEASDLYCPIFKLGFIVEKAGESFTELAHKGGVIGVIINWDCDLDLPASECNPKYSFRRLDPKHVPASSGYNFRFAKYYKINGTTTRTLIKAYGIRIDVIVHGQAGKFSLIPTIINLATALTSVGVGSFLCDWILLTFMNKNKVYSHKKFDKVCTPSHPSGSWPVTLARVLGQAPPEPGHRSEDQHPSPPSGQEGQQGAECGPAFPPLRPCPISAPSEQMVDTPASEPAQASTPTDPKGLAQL

Row | Structure (SMILES) | seizures ([1]; P10 rat pups) | amplitude ([1]; vs vehicle (PBS)) | total power ([1]; vs vehicle (PBS)) | total seizure time (duration of HAHFDs) (Adult male C57BL/6 mice; given 60 min after KA, 60 min recording, vs vehicle) | seizure activity (Adult male C57BL/6 mice; given 60 min after KA, particularly within the first 15-30 min following injection) | mice continued in SE (Adult male C57BL/6 mice; given alone 60 min after KA, number of mice / group) | inhibition of P2X2 (P2X2)
1 | Cl.Clc1cccc(-c2nnnn2Cc2cccnc2)c1Cl [A-438079, 3-[[5-(2,3-Dichlorophenyl)-1H-tetrazol-1-yl]methyl]pyridine hydrochloride] | strongly reduced | less amplitude | less total power | not significantly different | some suppression | 3/5 | –
2 | CCOc1ccc(Nc2ccc(C(=C3C=CC(=[N+](CC)Cc4cccc(S(=O)(=O)[O-])c4)C=C3C)c3ccc(N(CC)Cc4cccc(S(=O)(=O)O)c4)cc3C)cc2)cc1 [BBG, Brilliant Blue G] | – | – | – | – | – | – | low micromolar range
